Assays:
[1] = test system: trimers (SEQ ID NO:36) and labeled HR2 peptide (SEQ ID NO:33); test: Fluorescence polarization assay of inhibition of complexing between trimers and labeled HR2 peptide; format: binding, HIV-1; settings: read-out: Concentration to inhibit complexing between the trimers and labeled HR2 peptide by 50% (IC50); fluorescein-labeled HR2 peptide 0.2 nM; trimers SEQ ID NO:36 50 nM
Procedure: In an example of a homogenous assay carried out as a liquid phase-based assay system, a fluorescence polarization assay was used in taking advantage of the high affinity interaction between HR1 and HR2 regions. Into reaction wells of a high throughput plate (>300 reaction wells) was added 20 μl of a solution containing a desired concentration of molecule to be assessed for its ability to bind to trimers employed with the present invention (e.g., formed from synthetic peptide) and either inhibit or disrupt HR1-HR2 binding interactions (“complexing between HR1 and HR2″). […] To each reaction well was then added 10 μl of a solution containing a desired concentration of trimers (formed from synthetic peptide employed with the present invention). […] Fluorescence intensity of polarized light was then measured with a detection system comprising a spectrophotometer, and the amount of polarized light was calculated using standard software in the art. In this example of the method according to the present invention, molecules assessed for ability to inhibit or disrupt complexing between trimers and a labeled HR2 peptide (e.g., SEQ ID NO:33) comprised either of two HR2 peptides.

[2] = test system: HIV-1; settings: in vitro infectivity assay
Text: These assays score for reduction of infectious virus titer employing the indicator cell lines MAGI or the CCR5 expressing derivative cMAGI. Both cell lines exploit the ability of HIV-1 tat to transactivate the expression of a β-galactosidase reporter gene driven by the HIV-LTR. The β-gal reporter has been modified to localize in the nucleus and can be detected with the X-gal substrate as intense nuclear staining within a few days of infection. The number of stained nuclei can thus be interpreted as equal to the number of infectious virions in the challenge inoculum if there is only one round of infection prior to staining. […] The cells were cultured for 2 more days, and then fixed and stained with the X-gal substrate to detect HIV-infected cells. The number of infected cells for each control and peptide dilution was determined with the CCD-imager, and then the IC50 and IC90 were calculated (expressed in μg/ml).

HR2 peptide A: HR2 peptide, derived from the HR2 region of HIV-1 gp41; also used labeled as binding partner (WMEWDREINNYTSLIHSLIEESQNQQEKNEQELLEL)
IC50 [1]: 68 nM | Antiviral activity against HIV-1 IC50 [2]: 0.002 µg/mL | Antiviral activity against HIV-1 IC90 [2]: 0.072 µg/mL
